# Laboratory results: article PMC3017052, “A Novel Peptide Derived from Human Apolipoprotein E Is an Inhibitor of Tumor Growth and Ocular Angiogenesis” (PLoS ONE, 2011)
# What was measured:
# MDA-MB-231 cells = assay type: cell-based, human; details: 48 h
# Protocol: To confirm that apoEdp affects cell survival, cell viability was determined using the cell titer 96®AQuous One solution cell proliferation kit. ApoEdp treatment of HUVECs induced a dose-dependent inhibition of cell viability (Fig. 1A). […] To determine whether apoEdp suppresses tumor growth by directly affecting tumor cells, we performed a cell viability assay using human breast cancer MDA-MB-231 cell line in vitro and cell titer 96®AQuous One solution cell proliferation kit.
# Figure 1 ApoEdp affects HUVEC survival but not MDA-MB-231. A. HUVEC: ApoEdp has a significant effect on VEGF-induced HUVEC viability. Cells were treated with apoEdp at the indicated concentrations and incubated with constant 50 ng/mL VEGF for 48 hr. All values were normalized to cell control of no VEGF and no apoEdp. Cell viability values (mean ± SEM) are expressed as % of the value of the VEGF control. B. MDA-MB-231: ApoEdp has no effect on MDA-MB-231viability. ApoEdp has no significant effect on MDA-MB-231 survival. […] Cell viability values (mean ± SEM) are expressed as % of the value of the control (untreated cells). […]
# Cell survival studies were carried out using the CellTiter96 AQueous One solution cell survival assay. […] The cells were incubated for 48 hr and then the AQueous One solution was added to the samples and measured at 490 nm.
# [1] = tested on: VEGF-induced corneal angiogenesis; experiment: Rabbit corneal micropocket assay (VEGF-induced angiogenesis); assay type: in vivo; details: 160 ng VEGF pellet, topical 1% eye drops 50 µL 5 times per day for 5 days, compared to saline treated eyes
# Protocol: To study the in vivo anti-angiogenic effect of apoEdp, we assessed its inhibitory effect on VEGF-induced corneal micro-pocket assay in rabbit eye model. The slow release micropellet (500 µm×500 µm) of 0.4 g of Compritol 888 ATO (Gattefosse) combined with 0.1 g of Squalane oil (Sigma) and 20 mg/mL L-α-phosphatidylcholine containing saline or 160 ng of VEGF were surgically implanted in the corneal micropocket created in the avascular area of rabbit cornea (Fig. 5A–B).
# Figure 5 ApoEdp inhibits angiogenesis in rabbit corneal micropocket assay. Slow-releasing micro pellets (500 µm×500 µm) containing 160 ng of VEGF were corneally implanted in New Zealand white rabbits (1.5–2.5 kg). […] (A)The area of neovascular response, vessel length, and clock hours of new blood vessel of rabbits in each group were calculated according to the formula Area (mm^2) = C/12×3.1416 [r^2−(r−L)^ 2] where C = the number of clock hours at the limbus involved in the neovascular response, L = length of the longest neovascular pedicle from the limbus onto anterior cornea, and r = radius of the cornea. […]
# Corneal micropockets were created with a modified von Graefe cataract knife in eyes of each […] NZ white rabbit. […] The area of neovascular response, vessel length, and clock hours of new blood vessels of the rabbits in each group were calculated according to the formula [55]. […]
# HUVEC = experiment: Wound-healing/migration assay; assay type: cell-based, human; details: 50 ng/mL VEGF, apoEdp 6–100 µM, three independent experiments; read-out: IC50, inhibition of VEGF-induced HUVEC wound-healing migration
# Protocol: An important angiogenic phenotype of ECs induced by VEGF is cell migration. The major aspects of VEGF action on ECs are its ability to act as a chemoattractant and to stimulate the angiogenic morphogenesis. […] Cell migration was examined after simulation of an artificial wound by perturbation of a cell monolayer using a 1-mL pipette tip. […] (Fig. 2C).
# Figure 2 ApoEdp inhibits wound-healing migration in vitro. Monolayers of HUVECs were scraped and incubated in medium containing 50 ng/mL VEGF in the presence or absence of various concentrations of apoEdp. VEGF stimulated the migration of HUVECs in the scraped area. Representative photomicrographs of cells treated with (A) VEGF alone or with (B) VEGF and apoEdp together are shown. Solid lines indicate the initial scraping. […] The bar diagram is the quantitative measurement of cell migration inside the scraped area. The data shown are representative of three independent experiments. ** p<0. 01; and *** p<0.001.
# To determine the effect of apoEdp on EC migration induced by VEGF, wound-healing assays were performed using HUVEC cells. Cells were allowed to grow to confluency on 6-well plates and washed twice with PBS. […] Migration of the cells into the wounded area was photographed with an Olympus U-RLF-T microscope and counted. […]
substance,measurement,setting,value
Ac-LRKLRKRLLLRKLRKRLL-NH2 [apoEdp],"50% cytotoxic dose (CC50), MDA-MB-231 viability",MDA-MB-231 cells,> 300 µM
same,VEGF-induced angiogenesis in rabbit corneal micropocket,[1],significantly inhibited VEGF-induced angiogenesis
same,IC50,HUVEC,~21.5 µM
